How the values were obtained:
Type in all cases: in vivo
Avena fatua = assay: greenhouse post-emergence herbicidal test; conditions: 16 g/ha, scale from 0 to 100
Text: (§1) The seeds of the test plants were sown separately for each species. For the post-emergence treatment, the test plants were first grown to a height of 3 to 15 cm, depending on the plant habit, and only then treated with the active ingredients which had been suspended or emulsified in water. For this purpose, the test plants were either sown directly and grown in the same containers, or they were first grown separately as seedlings and transplanted into the test containers a few days prior to treatment. Depending on the species, the plants were kept at 10-25° C. or 20-35° C., respectively. The test period extended over 2 to 4 weeks. During this time, the plants were tended, and their response to the individual treatments was evaluated. Evaluation was carried out using a scale from 0 to 100. 100 means no emergence of the plants, or complete destruction of at least the aerial moieties, and 0 means no damage, or normal course of growth. A good herbicidal activity is given at values of at least 70 and a very good herbicidal activity is given at values of at least 85.

Alopecurus myosuroides = assay: greenhouse post-emergence herbicidal test; conditions: scale from 0 to 100
Text: as §1

Setaria faberi = assay: greenhouse pre-emergence herbicidal test; conditions: 16 g/ha, scale from 0 to 100
Text: (§2) The seeds of the test plants were sown separately for each species. For the pre-emergence treatment, the active ingredients, which had been suspended or emulsified in water, were applied directly after sowing by means of finely distributing nozzles. The containers were irrigated gently to promote germination and growth and subsequently covered with transparent plastic hoods until the plants had rooted. This cover caused uniform germination of the test plants, unless this had been impaired by the active ingredients. Depending on the species, the plants were kept at 10-25° C. or 20-35° C., respectively. The test period extended over 2 to 4 weeks. During this time, the plants were tended, and their response to the individual treatments was evaluated. Evaluation was carried out using a scale from 0 to 100. 100 means no emergence of the plants, or complete destruction of at least the aerial moieties, and 0 means no damage, or normal course of growth. A good herbicidal activity is given at values of at least 70 and a very good herbicidal activity is given at values of at least 85.

Amaranthus retroflexus = assay: greenhouse pre-emergence herbicidal test; conditions: 16 g/ha, scale from 0 to 100
Text: as §2

Lolium multiflorum = assay: greenhouse post-emergence herbicidal test; conditions: 4 g/ha, scale from 0 to 100
Text: as §1

Compound | damages, Avena fatua (Avena fatua) | damages, Alopecurus myosuroides (Alopecurus myosuroides; 16 g/ha) | damages, Setaria faberi (Setaria faberi) | damages, Amaranthus retroflexus (Amaranthus retroflexus) | damages, Lolium multiflorum (Lolium multiflorum) | damages, Alopecurus myosuroides (Alopecurus myosuroides; 4 g/ha)
CCOC(=O)COc1cccc(Oc2cc(-n3nc(C)n(C(F)F)c3=O)c(F)cc2Cl)c1 [compound A] | 20 | 55 | 0 | 45 |  | 
CCOC(=O)COc1ccccc1Oc1cc(-n2nc(C)n(C(F)F)c2=O)c(F)cc1Cl [Example 3, Ethyl 2-[2-[2-chloro-5-[4-(difluoromethyl)-3-methyl-5-oxo-1,2,4-triazol-1-yl]-4-fluoro-phenoxy]phenoxy]acetate] | 70 | 95 | 85 | 85 | 90 | 70
CCOC(=O)COc1ccc(Oc2cc(-n3nc(C)n(C(F)F)c3=O)c(F)cc2Cl)cc1 [compound B] |  |  | 0 | 45 | 70 | 30
